# Patent publication US8592374B2, “Neurotrophic peptides” (Research Foundation for Mental Hygiene, Inc., priority 2007, dated 2013)
# Tests used:
# [1] = test system: signal transduction of LIF and CNTF; experiment: Interference with signal transduction of LIF and CNTF
# [2] = test system: mice; experiment: Morris Water Maze, Peptide 6 subcutaneous pellets; type: in vivo; details: 30 day group
# Protocol: Behavioral tests employing Morris Water maze task-based memory acquisition, retention and recall paradigms have also been carried out. Two groups of 18 mice each were treated with Peptide 6/Placebo containing implantable subcutaneous pellets with user specified timed release kinetics: 14 days for group 1 and 30 days for group 2.
# [3] = test system: dentate gyrus progenitor cells; experiment: Cell proliferation (BrdU labeled cells) in the dentate gyrus of mice given CNTF peptides i.p.; type: in vivo
# Description: (§1) All experiments involving mice were done on 8-10 month old female retired breeders of C57BL6 background. A total of 33 mice were divided into 10 groups of 3 animals each (except control group which had 6 mice). The groups are described in Table 1. Details of CNTF peptides are described in Table 2.
# (§2) The animals were kept in groups of 3 per cage. The mice were given daily intraperitoneal injections of four CNTF peptides either separately or in a mixture for 2 weeks as described in Table 1. From day 2, BrdU (Bromodeoxyuridine; 150 mg/Kg) was added to the injections. The animals were sacrificed 24 hours after the last injection. Briefly, the animals were perfused transcardially with PBS and their brains taken out and dissected into halves. One hemisphere from each animal was frozen for biochemical analysis and the other was fixed in 4% paraformaldehyde for 48 hours followed by equilibration in 30% sucrose in PBS overnight. These were then processed for immunohistochemistry.
# Fixed tissues were cut into 40 μm sections on a freezing sliding microtome. One in 5 sections per brain was processed for BrdU staining and visualized by immunoflorecence. Cell counting was done on these sections to determine the number of BrdU labeled cells (representing newly born cells) in the dentate gyrus of the hippocampus. The area of counting was limited to the granule cell layer and the subgranular zone (a two-nucleus thick layer adjacent to the granule cell layer). For counting purposes, the dentate gyrus was divided into two areas, the outer granule cell layer (oGCL) consisting of one half of the granule cell layer, and the subgranular zone (SGZ) of the inner half (towards the hilus) of the granule cell layer plus a two-nucleus thick layer adjacent to the outer border of the hilus. Cell counting was done on confocal images of the sections according to the optical dissector principle. Volumetric analysis was carried out with the help of Image Pro software.
# as §2, with “table” for “Table”, “injection (FIG. 1).” for “injection.”
# (§3) Fixed tissues were cut into 40 μm sections on a freezing sliding microtome. One in 5 sections per brain was processed for BrdU staining and visualized by immunoflorecence. Cell counting was done on these sections to determine the number of BrdU labeled cells (representing newly born cells) in the dentate gyrus of the hippocampus. The area of counting was limited to the granule cell layer and the subgranular zone (a two-nucleus thick layer adjacent to the granule cell layer). For counting purposes, the dentate gyrus was divided into two areas, the outer granule cell layer (oGCL) consisting of out half of the granule cell layer, and the […] comprising of the inner half (towards the hilus) of the granule cell layer plus a two-nucleus thick layer adjacent to the outer border of the hilus. Cell counting was done on confocal images of the sections according to the optical dissector principle. Volumetric analysis was carried out with the help of Image Pro software.
# [4] = test system: dentate gyrus progenitors; experiment: DCX expression in BrdU labeled progenitors in the dentate gyrus; type: in vivo, mice; details: 14 day treatment group
# Description: as §1
# as §2, with “table” for “Table”, “injection (FIG. 1).” for “injection.”
# as §3
# [5] = test system: dentate gyrus; experiment: MAP2 and synaptophysin immunoreactivity in the dentate gyrus (mean pixel intensity), Example 3; type: in vivo, mice; details: mean pixel intensity in outlined area
# Protocol: as §2, with “table” for “Table”, “injection (FIG. 1).” for “injection.”
# [6] = both concentrations (0.5 and 5 nmoles/animal)
substance,measurement,setting,value
Ac-VGDGGLFEKKL-NH2 [Peptide 6],interference with signal transduction of LIF versus CNTF,[1],interferes with the signal transduction of LIF more than with that of CNTF
same,"memory acquisition (time spent and distance covered in the target quadrant), Morris Water Maze",[2],significant improvement in memory acquisition
same,cell proliferation in the SGZ (subgranular zone),[3]; [6],increased cell proliferation
same,cell proliferation in the oGCL (outer portion of the granule cell layer),[3]; [6],increased cell proliferation
same,proliferation of dentate gyrus progenitor cells compared with Peptide 9,[3]; daily i.p. injections for 2 weeks,more proliferation than Peptide 9
same,proliferation of dentate gyrus progenitor cells,"[3]; daily i.p. injections for 2 weeks, BrdU labeling, 8-10 month old female C57BL6 mice",statistically significant increase
same,differentiation of dentate gyrus progenitors into DCX (doublecortin) expressing cells,[4],two fold increase
same,MAP2 immunoreactivity in the dentate gyrus,[5],statistically significant increase
same,synaptophysin immunoreactivity in the dentate gyrus,[5],statistically significant increase
